The values below come from ChEMBL document CHEMBL5214945, “Identification of small-molecule inhibitors of the DNA repair proteins RuvAB from Pseudomonas aeruginosa” (Bioorg Med Chem, 2022).

The source made the active and inactive calls. The calls are words filed in the database; no cut-off is given here.

Assay [1] in a line: Inhibition of Thermus thermophilus RuvA/RuvB protein complex helicase activity expressed in Escherichia coli BL21(DE3) assessed as inhibition of HJ branch migration preincubated for 15 mins followed by substrate addition and measured after 1 hr using 5'-FAM labelled 5'-CACTGTGATGCACGATGATTGACGACAGTAGTCAGTGCTGCAGTGGTCAGGTGTC-3' HJ-a duplex DNA as substrate in presence of ATP by PAGE analysis.

The nature of assay [2]: Inhibition of Pseudomonas aeruginosa RuvA/RuvB protein complex helicase activity expressed in Escherichia coli BL21(DE3) assessed as inhibition of HJ branch migration preincubated for 15 mins followed by substrate addition and measured after 1 hr using 5'-FAM labelled 5'-CACTGTGATGCACGATGATTGACGACAGTAGTCAGTGCTGCAGTGGTCAGGTGTC-3' HJ-a duplex DNA as substrate in presence of ATP by PAGE analysis.

In assay [3] the test system is Pseudomonas aeruginosa. The assay can be described thus: Inhibition of Pseudomonas aeruginosa RuvA expressed in Escherichia coli BL21(DE3) binding to HJ DNA assessed as reduction in RuvA-HJ DNA complex formation at 40 uM and measured after 15 mins using 5'-FAM labelled Holliday junction DNA as substrate by EMSA analysis. In general terms: A gel shift assay detects complexes by their altered migration in electrophoresis.

The nature of assay [4]: Inhibition of Bacillus subtilis RuvA/RuvB protein complex helicase activity expressed in Escherichia coli BL21(DE3) assessed as inhibition of HJ branch migration preincubated for 15 mins followed by substrate addition and measured after 1 hr using 5'-FAM labelled 5'-CACTGTGATGCACGATGATTGACGACAGTAGTCAGTGCTGCAGTGGTCAGGTGTC-3' HJ-a duplex DNA as substrate in presence of ATP by PAGE analysis.

Assay [5] concerns Pseudomonas aeruginosa. As to the kind of experiment: Inhibition of Pseudomonas aeruginosa RuvA expressed in Escherichia coli BL21(DE3) binding to HJ DNA assessed as reduction in RuvA-HJ DNA complex formation at >20 uM and measured after 15 mins using 5'-FAM labelled Holliday junction DNA as substrate by EMSA analysis.
The subject of assay [6] is Pseudomonas aeruginosa. As to the kind of experiment: Antimicrobial activity against Pseudomonas aeruginosa ATCC27853 assessed as colony formation at 2 uM preincubated for 1 hr followed by UV-light irradiation for 5 mins then culture on LB-agar plate for overnight by colony counting method. The class given is functional, organism-based.
Assay [7] concerns Pseudomonas aeruginosa. As to the kind of experiment: Antimicrobial activity against Pseudomonas aeruginosa ATCC27853 assessed as colony formation at 50 uM preincubated for 1 hr followed by UV-light irradiation for 5 mins then culture on LB-agar plate for overnight by colony counting method. The class given is functional, organism-based.
Assay [8] relates to Pseudomonas aeruginosa. As to the kind of experiment: Inhibition of Pseudomonas aeruginosa RuvA expressed in Escherichia coli BL21(DE3) binding to HJ DNA assessed as reduction in RuvA-HJ DNA complex formation at >10 uM and measured after 15 mins using 5'-FAM labelled Holliday junction DNA as substrate by EMSA analysis.
Assay [9] is described as follows: Binding affinity to CM5 chip immobilized Pseudomonas aeruginosa RuvB D114N mutant expressed in Escherichia coli BL21(DE3) assessed as dissociation constant measured for 180 sec by surface plasmon resonance analysis. Background: SPR reads the build-up and loss of mass on a sensor chip optically.
Assay [10] relates to Pseudomonas aeruginosa. As to the kind of experiment: Binding affinity to CM5 chip immobilized Pseudomonas aeruginosa RuvB D114N mutant expressed in Escherichia coli BL21(DE3) assessed as association rate constant (ka) measured for 240 sec by surface plasmon resonance analysis.
Assay [11] concerns Pseudomonas aeruginosa. As to the kind of experiment: Binding affinity to CM5 chip immobilized Pseudomonas aeruginosa wild type RuvB expressed in Escherichia coli BL21(DE3) assessed as association rate constant (ka) measured for 240 sec by surface plasmon resonance analysis.
A short description of assay [12]: Binding affinity to CM5 chip immobilized Pseudomonas aeruginosa wild type RuvB expressed in Escherichia coli BL21(DE3) assessed as dissociation constant measured for 180 sec by surface plasmon resonance analysis.
The test system of assay [13] is Pseudomonas aeruginosa. As to the kind of experiment: Binding affinity to CM5 chip immobilized Pseudomonas aeruginosa RuvB D114N mutant expressed in Escherichia coli BL21(DE3) assessed as dissociation rate constant (kd) measured for 180 sec by surface plasmon resonance analysis.
Assay [14] relates to Pseudomonas aeruginosa. As to the kind of experiment: Binding affinity to CM5 chip immobilized Pseudomonas aeruginosa wild type RuvB expressed in Escherichia coli BL21(DE3) assessed as dissociation rate constant (kd) measured for 180 sec by surface plasmon resonance analysis.
Assay [15] is described as follows: Inhibition of HJ-DNA dependent Pseudomonas aeruginosa RuvB ATPase activity expressed in Escherichia coli BL21(DE3) assessed as inhibition of ATP hydrolysis preincubated with compound followed by ATP addition and measured after 1 hr by Kinase-Glo reagent based luminescence analysis. (In general: Kinase-Glo reads ATP consumption through a luciferase reaction.)

Consider `CC1=C(C)C(=O)C(CCCCCCCCCC[P+](c2ccccc2)(c2ccccc2)c2ccccc2)=CC1=O`, for which the IC50 is 7900 nM in assay [1], 4640 nM in assay [2] and 13500 nM in assay [4]. Besides, the inhibition entry in the assay on Pseudomonas aeruginosa [3] and in the assay on Pseudomonas aeruginosa [5] was “Active” in each case. The result in the assay with Pseudomonas aeruginosa [6] was Active.
In the case of `COC(=O)[C@]12CCC(C)(C)C[C@H]1[C@H]1C(=O)C=C3[C@@]4(C)C=C(C#N)C(=O)C(C)(C)[C@@H]4CC[C@@]3(C)[C@]1(C)CC2` [BARDOXOLONE METHYL], the result in the assay with Pseudomonas aeruginosa [7] was Active. In addition, the IC50 in [2] turned out to be 377 nM. Besides, the inhibition entry in the assay on Pseudomonas aeruginosa [3] and with Pseudomonas aeruginosa [8] was “Active” throughout.
Consider `O=C(O[C@@H]1O[C@@H]2COC(=O)c3cc(O)c(O)c(O)c3-c3c(cc(O)c(O)c3O)C(=O)O[C@H]([C@H]1O)[C@@H]2O)c1cc(O)c(O)c(O)c1` [CORILAGIN], for which the IC50 in assay [1] amounted to 1110 nM; in assay [2] it was 398 nM; in [4], 840 nM; in [15] it was 2320 nM. The figures for the dissociation constant Kd in assay [9] and in [12] were 410 nM and 130 nM, respectively. The result with Pseudomonas aeruginosa [7] was Active. Also, the Ka in the assay on Pseudomonas aeruginosa [10] is 5.9 10^3/M/s; in the assay on Pseudomonas aeruginosa [11], 1.6 10^4/M/s. For the same compound, the Kdiss was 2.4 10^-3/s in the assay on Pseudomonas aeruginosa [13] and 2.2 10^-3/s with Pseudomonas aeruginosa [14].

For orientation: IC50 means the concentration needed to halve the response being measured. Usually Kd stands for the equilibrium constant for the complex coming apart.
